Toxic doses and inconclusive results are not listed.
Tested on: L1210 leukemia ip in BDF1 mice, survival T/C
Experiment: NCI In Vivo Anticancer Drug Screen. Data for tumor model L1210 Leukemia (intraperitoneal) in B6D2F1 (BDF1) mice
Conditions: endpoint: mean survival time, higher = longer survival
Procedure, shortened: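 Transplanted-tumor mice were given test agent; controls received vehicle only. Survival readings from the two groups were divided (treated over control).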

[1] = dose: 100.0 mg/kg/injection, schedule: Q01DX001 (ip), vehicle: saline

Nc1nc(N)c2cc(CNc3ccc(C(=O)NC(CC(=O)O)CC(=O)O)cc3)ccc2n1
T/C (dose: 6.25 mg/kg/injection, schedule: Q01DX009 (ip), vehicle: saline): 123 % of control
T/C (dose: 6.3 mg/kg/injection, schedule: Q01DX009 (ip), vehicle: carboxymethylcellulose (CMC)): 167 % of control
T/C (dose: 10.0 mg/kg/injection, schedule: Q01DX009 (ip), vehicle: other): 157 % of control
T/C (dose: 12.5 mg/kg/injection, schedule: Q01DX009 (ip), vehicle: carboxymethylcellulose (CMC)): 152 % of control
T/C (dose: 25.0 mg/kg/injection, schedule: Q01DX009 (ip), vehicle: carboxymethylcellulose (CMC)): 180 % of control
T/C (dose: 25.0 mg/kg/injection, schedule: Q01DX009 (ip), vehicle: other): 158 % of control
T/C (dose: 50.0 mg/kg/injection, schedule: Q01DX001 (ip), vehicle: saline): 109 % of control
T/C (dose: 50.0 mg/kg/injection, schedule: Q01DX009 (ip), vehicle: carboxymethylcellulose (CMC)): 117 % of control
T/C (dose: 50.0 mg/kg/injection, schedule: Q01DX009 (ip), vehicle: saline): 216 % of control
T/C (dose: 100.0 mg/kg/injection, schedule: Q01DX001 (ip), vehicle: other): 196 % of control
T/C [1]: 114 % of control
T/C (dose: 100.0 mg/kg/injection, schedule: Q01DX009 (ip), vehicle: carboxymethylcellulose (CMC)): 105 % of control
T/C (dose: 100.0 mg/kg/injection, schedule: Q01DX009 (ip), vehicle: other): 101 % of control
T/C (dose: 100.0 mg/kg/injection, schedule: Q01DX009 (ip), vehicle: saline): 103 % of control
T/C (dose: 133.0 mg/kg/injection, schedule: Q01DX001 (ip), vehicle: other): 175 % of control
T/C (dose: 200.0 mg/kg/injection, schedule: Q01DX001 (ip), vehicle: other): 208 % of control
T/C (dose: 200.0 mg/kg/injection, schedule: Q01DX009 (ip), vehicle: carboxymethylcellulose (CMC)): 88 % of control
T/C (dose: 200.0 mg/kg/injection, schedule: Q01DX009 (ip), vehicle: other): 86 % of control
T/C (dose: 200.0 mg/kg/injection, schedule: Q01DX009 (ip), vehicle: saline): 97 % of control
T/C (dose: 300.0 mg/kg/injection, schedule: Q01DX001 (ip), vehicle: other): 166 % of control
T/C (dose: 300.0 mg/kg/injection, schedule: Q01DX001 (ip), vehicle: saline): 122 % of control
T/C (dose: 400.0 mg/kg/injection, schedule: Q01DX001 (ip), vehicle: other): 107 % of control
T/C (dose: 600.0 mg/kg/injection, schedule: Q01DX001 (ip), vehicle: saline): 152 % of control

CC12CCC(=O)C=C1CCC1C2CCC2(C)C(C(=O)CC(O)(C(F)(F)F)C(F)(F)F)CCC12 (configuration not stated)
T/C (dose: 100.0 mg/kg/injection, schedule: Q01DX001 (ip), vehicle: Klucel (hydroxypropylcellulose) (HPC)): 94 % of control
T/C (dose: 200.0 mg/kg/injection, schedule: Q01DX001 (ip), vehicle: Klucel (hydroxypropylcellulose) (HPC)): 96 % of control
T/C (dose: 400.0 mg/kg/injection, schedule: Q01DX001 (ip), vehicle: Klucel (hydroxypropylcellulose) (HPC)): 96 % of control

Cc1c(Br)c(=O)[nH]c2c(C)cccc12
T/C [1]: 98 % of control
T/C (dose: 200.0 mg/kg/injection, schedule: Q01DX001 (ip), vehicle: saline): 98 % of control
T/C (dose: 400.0 mg/kg/injection, schedule: Q01DX001 (ip), vehicle: saline): 96 % of control

O=[N+]([O-])c1ccc(-n2cnnn2)cc1
T/C (dose: 100.0 mg/kg/injection, schedule: Q01DX001 (ip), vehicle: carboxymethylcellulose (CMC)): 94 % of control
T/C (dose: 200.0 mg/kg/injection, schedule: Q01DX001 (ip), vehicle: carboxymethylcellulose (CMC)): 100 % of control
T/C (dose: 400.0 mg/kg/injection, schedule: Q01DX001 (ip), vehicle: carboxymethylcellulose (CMC)): 91 % of control

CCCCN(CC)CCNc1cc(C)nc(/N=C(\N)Nc2ccc(Cl)c(Cl)c2)n1
T/C (dose: 18.75 mg/kg/injection, schedule: Q01DX009 (ip), vehicle: Klucel (hydroxypropylcellulose) (HPC)): 102 % of control
T/C (dose: 37.5 mg/kg/injection, schedule: Q01DX009 (ip), vehicle: Klucel (hydroxypropylcellulose) (HPC)): 88 % of control

Clc1nc(I)c(Cl)c(C(Cl)(Cl)Cl)n1
T/C (dose: 12.5 mg/kg/injection, schedule: Q01DX001 (ip), vehicle: Klucel (hydroxypropylcellulose) (HPC)): 89 % of control
T/C (dose: 25.0 mg/kg/injection, schedule: Q01DX001 (ip), vehicle: Klucel (hydroxypropylcellulose) (HPC)): 93 % of control
T/C (dose: 50.0 mg/kg/injection, schedule: Q01DX001 (ip), vehicle: Klucel (hydroxypropylcellulose) (HPC)): 89 % of control

CN1C2CCCC1CC(=O)NC2 (configuration not stated)
T/C (dose: 15.0 mg/kg/injection, schedule: Q01DX001 (ip), vehicle: saline): 107 % of control
T/C (dose: 15.0 mg/kg/injection, schedule: Q04DX002 (ip), vehicle: saline): 101 % of control
T/C (dose: 30.0 mg/kg/injection, schedule: Q01DX001 (ip), vehicle: saline): 106 % of control
T/C (dose: 30.0 mg/kg/injection, schedule: Q04DX002 (ip), vehicle: saline): 101 % of control
T/C (dose: 60.0 mg/kg/injection, schedule: Q04DX002 (ip), vehicle: saline): 108 % of control

Reference: PubChem BioAssay AID248 (DTP/NCI, 2004)
